Values after ≈ are worked out from the molar mass of the structure shown. Read-outs that look alike come from different tables or passages of the source.
Columns and labels:
[1] = human ADME study (unpublished data); cited from earlier work
P‐glycoprotein (P‐gp) = P‐glycoprotein (P‐gp) (Homo sapiens, UniProt P08183); assay: In vitro transport study, pemigatinib as substrate: P‐gp mediated efflux; format: in vitro ADME; conditions: data on file
[2] = fed state; cited from earlier work
[3] = patients with cancer, cited from earlier work; for Observed AUCss,0–24: geometric mean
[4] = cited from earlier work
MATE1 = biological target: T1, MATE1 (Homo sapiens, UniProt Q96FL8); assay: MATE1 inhibition; format: in vitro ADME
T1 sequence (Q96FL8 1-570): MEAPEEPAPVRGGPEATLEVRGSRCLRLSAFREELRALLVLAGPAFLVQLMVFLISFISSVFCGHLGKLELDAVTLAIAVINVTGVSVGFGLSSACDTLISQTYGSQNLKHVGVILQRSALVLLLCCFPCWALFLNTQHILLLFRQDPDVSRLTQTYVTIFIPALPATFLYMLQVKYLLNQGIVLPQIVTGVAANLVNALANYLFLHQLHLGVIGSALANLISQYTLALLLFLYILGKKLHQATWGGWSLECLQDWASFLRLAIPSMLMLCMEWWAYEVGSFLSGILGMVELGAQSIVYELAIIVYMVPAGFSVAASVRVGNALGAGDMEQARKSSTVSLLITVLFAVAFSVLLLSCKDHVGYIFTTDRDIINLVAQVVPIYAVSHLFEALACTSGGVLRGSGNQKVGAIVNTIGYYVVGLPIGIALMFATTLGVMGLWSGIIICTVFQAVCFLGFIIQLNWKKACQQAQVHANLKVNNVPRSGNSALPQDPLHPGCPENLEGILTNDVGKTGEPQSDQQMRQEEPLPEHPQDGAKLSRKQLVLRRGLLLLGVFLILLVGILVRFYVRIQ

pKa determination = format: physicochemical
[5] = Human mass balance / ADME study in healthy participants; format: in vivo
logP determination = format: physicochemical
P‐gp = P‐gp (Homo sapiens, UniProt P08183); assay: P‐gp inhibition
OCT2 = biological target: T2, OCT2 (Homo sapiens, UniProt O15244); assay: OCT2 inhibition
T2 sequence (O15244 1-555): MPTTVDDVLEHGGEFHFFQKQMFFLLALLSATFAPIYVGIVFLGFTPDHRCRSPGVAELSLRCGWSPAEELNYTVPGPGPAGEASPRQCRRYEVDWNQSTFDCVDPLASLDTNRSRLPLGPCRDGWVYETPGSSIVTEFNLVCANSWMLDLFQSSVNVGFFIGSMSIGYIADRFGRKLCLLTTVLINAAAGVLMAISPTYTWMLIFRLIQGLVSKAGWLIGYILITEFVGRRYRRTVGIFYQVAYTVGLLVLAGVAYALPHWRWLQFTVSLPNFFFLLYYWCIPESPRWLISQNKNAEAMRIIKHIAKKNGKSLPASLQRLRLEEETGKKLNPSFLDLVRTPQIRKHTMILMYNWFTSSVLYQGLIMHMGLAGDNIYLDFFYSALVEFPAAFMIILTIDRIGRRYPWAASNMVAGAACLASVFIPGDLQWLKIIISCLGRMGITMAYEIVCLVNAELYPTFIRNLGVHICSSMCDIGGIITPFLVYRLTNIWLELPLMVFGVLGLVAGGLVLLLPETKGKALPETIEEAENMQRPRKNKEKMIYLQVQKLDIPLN

[6] = Solubility‐pH profile in buffers at 37°C; format: physicochemical
Blood/plasma ratio = format: in vitro ADME; conditions: blood and plasma
[7] = cited from earlier work; for Observed AUC0–∞: geometric mean
[8] = healthy participants, unpublished data

P‐gp, sequence (P08183 whole entry): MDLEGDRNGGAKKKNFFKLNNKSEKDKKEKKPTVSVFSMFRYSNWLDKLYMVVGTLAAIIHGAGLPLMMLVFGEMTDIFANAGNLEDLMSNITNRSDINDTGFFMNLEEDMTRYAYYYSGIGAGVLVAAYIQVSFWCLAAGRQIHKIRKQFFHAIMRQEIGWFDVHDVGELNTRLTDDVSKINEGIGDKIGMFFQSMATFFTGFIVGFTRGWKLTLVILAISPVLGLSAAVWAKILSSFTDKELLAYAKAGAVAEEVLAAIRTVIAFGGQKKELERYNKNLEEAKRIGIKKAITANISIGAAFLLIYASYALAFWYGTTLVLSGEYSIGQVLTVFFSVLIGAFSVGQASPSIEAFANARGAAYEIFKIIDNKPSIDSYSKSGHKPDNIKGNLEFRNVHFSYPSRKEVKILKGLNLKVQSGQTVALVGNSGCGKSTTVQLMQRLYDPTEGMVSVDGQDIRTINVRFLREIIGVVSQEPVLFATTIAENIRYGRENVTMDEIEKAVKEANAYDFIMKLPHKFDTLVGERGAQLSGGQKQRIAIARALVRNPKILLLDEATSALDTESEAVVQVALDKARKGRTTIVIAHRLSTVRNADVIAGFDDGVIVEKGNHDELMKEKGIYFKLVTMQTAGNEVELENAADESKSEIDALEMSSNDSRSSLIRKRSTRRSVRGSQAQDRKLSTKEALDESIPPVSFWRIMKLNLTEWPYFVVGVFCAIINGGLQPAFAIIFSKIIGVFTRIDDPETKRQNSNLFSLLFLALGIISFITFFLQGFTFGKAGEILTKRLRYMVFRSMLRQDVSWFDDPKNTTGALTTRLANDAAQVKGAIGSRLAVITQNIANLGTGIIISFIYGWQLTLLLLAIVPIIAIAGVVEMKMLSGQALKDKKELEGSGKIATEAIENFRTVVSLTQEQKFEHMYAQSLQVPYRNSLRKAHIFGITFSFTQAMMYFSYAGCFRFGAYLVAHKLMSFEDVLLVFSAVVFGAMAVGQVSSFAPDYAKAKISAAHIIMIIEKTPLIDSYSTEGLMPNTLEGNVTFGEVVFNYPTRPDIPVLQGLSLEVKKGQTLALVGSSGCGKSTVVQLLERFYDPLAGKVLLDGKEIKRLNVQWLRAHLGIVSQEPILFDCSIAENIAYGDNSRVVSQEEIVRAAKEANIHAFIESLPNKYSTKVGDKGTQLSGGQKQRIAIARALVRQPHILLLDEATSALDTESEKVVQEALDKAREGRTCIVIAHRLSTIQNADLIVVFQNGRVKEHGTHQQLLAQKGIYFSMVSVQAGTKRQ
P‐glycoprotein (P‐gp), sequence (P08183 whole entry): as above

CCN1C(=O)N(c2c(F)c(O)cc(OC)c2F)Cc2cnc3[nH]c(CN4CCOCC4)cc3c21 [M2, O‐desmethyl‐pemigatinib]
Metabolite burden in urine and feces derived from M2 and its secondary metabolites [1]: 76.9%

CCN1C(=O)N(c2c(F)c(OC)cc(OC)c2F)Cc2cnc3[nH]c(CN4CCOCC4)cc3c21 [pemigatinib, Pemigatinib]
Concentration at which P‐gp mediated efflux was saturated (P‐glycoprotein (P‐gp)): 1000 nM
Decrease of geometric mean Cmax [2]: 18%
Increase of geometric mean AUC0–24 at SS [2]: 11%
Observed AUCss,0–24 ([3]; multiple oral doses 6 mg): 1.05 µM·h
Observed AUCss,0–24 ([3]; multiple oral doses 9 mg): 1.67 µM·h
Terminal half‐life ([3]; oral dosing): ~ 15 h
CLpo (oral clearance) ([3]; phase I study): 12.0 L/h
Apparent volume of distribution, geometric mean [3]: 173 to 244 L
SS oral clearance, geometric mean [3]: 9.88 to 11.7 L/h
Decrease of geometric mean AUC of pemigatinib ([4]; coadministration with esomeprazole): 8%
Decrease of geometric mean Cmax of pemigatinib ([4]; coadministration with histamine‐2 antagonist ranitidine): 2%
Decrease of geometric mean Cmax of pemigatinib ([4]; coadministration with proton pump inhibitor esomeprazole): 35%
Increase of geometric mean AUC of pemigatinib ([4]; coadministration with ranitidine): 3%
Total radioactivity accounted for by known metabolites [1]: 72%
IC50 (MATE1): 1100 nM
Compound type (pKa determination): Diprotic base
pKa (pKa determination; first printed pKa of the diprotic base): 5.7
pKa (pKa determination; second printed pKa of the diprotic base): 3.1
Total radioactivity excreted in feces [5, 8]: 82.4%
Total radioactivity excreted in urine [5, 8]: 12.6%
Radioactivity blood/plasma value ([5]; human ADME study): 0.80
CL renal ([5]; human, urine, oral): ~3.33 mL/min
Administered radioactive dose recovered as unchanged pemigatinib in feces ([5]; in vivo): 1.4%
Dose excreted in urine as unchanged pemigatinib (renal excretion) ([5]; in vivo): ~ 1%
logP (logP determination): 2.2
IC50 (P‐gp): 4800 nM
IC50 (OCT2): 75 nM
solubility ([6]; buffer, 37 °C, pH 1.2, aqueous buffer, Solubility, pH 1.2 buffer): ~710 µg/mL (≈ 1460 µM)
solubility ([6]; buffer, 37 °C, pH 2, aqueous buffer, Solubility, pH 2.0 buffer): 650 µg/mL (≈ 1330 µM)
solubility ([6]; buffer, 37 °C, pH 6.5, aqueous buffer, Solubility, pH 6.5 buffer): < 1 µg/mL
solubility ([6]; buffer, 37 °C, pH 7.4, aqueous buffer, Solubility, pH 7.4 buffer): < 1 µg/mL
solubility ([6]; buffer, pH 3.3, Solubility, pH 3.3): 200 µg/mL (≈ 410 µM)
solubility ([6]; buffer, pH 4.3, Solubility, pH 4.3): 30 µg/mL (≈ 61.5 µM)
solubility ([6]; buffer, pH 5.3, Solubility, pH 5.3): 1 µg/mL (≈ 2.05 µM)
solubility ([6]; pH 1.2 buffer, 37°C): 710 µg/mL (≈ 1460 µM)
blood plasma ratio (Blood/plasma ratio): 0.96
Increase in pemigatinib AUC ([7]; itraconazole coadministration): ~90%
Increase in pemigatinib Cmax ([7]; itraconazole coadministration): ~20%
CLpo (oral clearance) ([7]; pemigatinib alone cohort of itraconazole DDI study, healthy volunteers): 14.5 L/h
Decrease in half‐life of pemigatinib ([7]; rifampin coadministration): 63%
Decrease in pemigatinib AUC ([7]; rifampin coadministration): 85%
Observed AUC0–∞ ([7]; single oral dose 4.5 mg, healthy volunteers): 0.672 µM·h
Observed AUC0–∞ ([7]; single oral dose 13.5 mg, healthy volunteers): 1.96 µM·h
